Results as given in paper PMC11527162, “Mutational analysis of Phanerochaete chrysosporium´s purine transporter” (PLOS ONE, 2024).
Substitutions are numbered along the chain they refer to. Numbers in names are those of the source.

B1: PhZ (Phanerodontia chrysosporium; L124M) (protein)
chain: MPIALTHRINAFVADSPVGRWFHLEGSGHPKERVGSRFLTELRAGLTTWAAMAYIISVNASIISDTGGTCVCTQPDLCVNDETYLSCVADVRRDLITSTAAVSALASFLMGLLANLPVGMAPGMGLNAYFTYSVVGFHGSGIITYREALAAVFLEGWFFFFLSLLGLRQWLARIMPQSLVMAVGAGIGLFIAFIGLSGGGLGVIGGDTTNLVGLGGCLPQYYTSPDLPNYCASHVLQSPTMWLGIFVGGVFTVFLMLYRVKGAILIGIFLTSIISWPRPTSVTYFPHTDTGDQAFDFFKQVVTFRPLKRIGNALDYNYSNGRVWYALITFLYVDILDTTGTLYSMAKFAGLRDPVTLDFENSTIAYCVDAFSISMGALMGTSPVTAFIESATGISEGGKTGLTAITTGFAFFISVFFAPIFASIPSWATGGALVIVGSLMIRNVRDINWDYVGDSVPAFLTLIIIPLTYNIAYGVIAGIISFVLINGLAWALRKVSGERFAPPNYDASEPWVIPPGSIVPAWMRFIAGRTGLARDAARERPADADVLEMEQHAHDAASASSLGKHVPAVAEPVTEKDD
notes: full length, 578 amino acids, from cDNA; C-terminal GFP fusion kept; expressed at the azgA locus of Aspergillus nidulans deltaZAC (azgA, uapA, uapC deleted)
B2: PhZ (Phanerodontia chrysosporium) (protein)
chain: B1 chain with M124L
notes: as for B1
B3: PhZ (Phanerodontia chrysosporium; S133T) (protein)
chain: B1 chain with M124L, S133T
notes: as for B1
B4: PhZ (Phanerodontia chrysosporium; T392A) (protein)
chain: B1 chain with M124L, T392A
notes: as for B1
B5: PhZ (Phanerodontia chrysosporium; A418V) (protein)
chain: B1 chain with M124L, A418V
notes: as for B1

Legend:
[1] = molecular target: T1, PhZ (Phanerodontia chrysosporium, UniProt A0A1B2TT73, A418V); experiment: competition with [3H]-hypoxanthine uptake in germinating A. nidulans conidia; type: cell-based; conditions: 0.2 uM [3H]-hypoxanthine, 37 °C
T1 construct: full length, 578 amino acids, from cDNA; C-terminal GFP fusion kept; expressed at the azgA locus of Aspergillus nidulans deltaZAC (azgA, uapA, uapC deleted)
T1 sequence (A0A1B2TT73 entry or part of it A418V): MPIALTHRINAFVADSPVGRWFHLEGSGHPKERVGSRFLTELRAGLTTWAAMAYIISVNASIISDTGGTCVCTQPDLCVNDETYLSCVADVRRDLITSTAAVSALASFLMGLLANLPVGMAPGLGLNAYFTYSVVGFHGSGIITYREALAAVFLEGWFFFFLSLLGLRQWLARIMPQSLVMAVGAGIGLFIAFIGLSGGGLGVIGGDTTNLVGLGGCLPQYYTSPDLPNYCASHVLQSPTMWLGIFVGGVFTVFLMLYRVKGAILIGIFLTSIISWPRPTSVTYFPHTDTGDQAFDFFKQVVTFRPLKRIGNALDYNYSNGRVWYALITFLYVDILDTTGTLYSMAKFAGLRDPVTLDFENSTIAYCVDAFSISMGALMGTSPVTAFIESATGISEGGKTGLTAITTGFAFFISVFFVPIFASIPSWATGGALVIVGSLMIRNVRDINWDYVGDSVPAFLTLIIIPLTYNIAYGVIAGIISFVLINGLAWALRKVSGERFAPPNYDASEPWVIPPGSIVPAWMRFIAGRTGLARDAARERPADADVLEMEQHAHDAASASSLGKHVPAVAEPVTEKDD

[2] = molecular target: T2, PhZ (Phanerodontia chrysosporium, UniProt A0A1B2TT73, L124M); experiment: as above; type: cell-based; conditions: 0.2 uM [3H]-hypoxanthine, 37 °C
T2 construct: full length, 578 amino acids, from cDNA; C-terminal GFP fusion kept; expressed at the azgA locus of Aspergillus nidulans deltaZAC (azgA, uapA, uapC deleted)

[3] = substrate: O=c1[nH]cnc2nc[nH]c12; experiment: inhibition of [3H]-hypoxanthine uptake by unlabelled hypoxanthine in germinating A. nidulans conidia; type: cell-based, Phanerodontia chrysosporium; conditions: 0.2 uM [3H]-hypoxanthine, 37 °C, minimal medium with nitrate, Km/i taken as equal to IC50 of unlabelled hypoxanthine
[4] = substrate: O=c1[nH]cnc2nc[nH]c12; experiment: as above; type: cell-based, Phanerodontia chrysosporium; conditions: 0.2 uM [3H]-hypoxanthine, 37 °C, minimal medium with nitrate, Km/i taken as equal to IC50 of unlabelled hypoxanthine; remark: listed apart in the source
Excerpt: inhibition of [3H]-hypoxanthine uptake by unlabelled hypoxanthine in germinating A. nidulans conidia on PhZ | Dose-response curves for hypoxanthine are shown.

[5] = substrate: O=c1[nH]cnc2nc[nH]c12; experiment: as above; type: cell-based, Phanerodontia chrysosporium; conditions: 0.2 uM [3H]-hypoxanthine, 37 °C, minimal medium with nitrate, Km/i taken as equal to IC50 of unlabelled hypoxanthine; remark: listed apart in the source
Excerpt: inhibition of [3H]-hypoxanthine uptake by unlabelled hypoxanthine in germinating A. nidulans conidia on PhZ | (A) PhZwt; (B-E) L124M, S133T, T392A and A418V mutants respectively.

| Molecule | % of initial uptake velocity with 1 mM competitor [1] | % of initial uptake velocity with 1 mM competitor [2] | Km [5] | further results |
| --- | --- | --- | --- | --- |
| Nc1ncnc2[nH]cnc12 [adenine] | the T392A and A418V mutants exhibited higher levels of inhibition | L124M and S133T, show less [^3H]-hypoxanthine inhibition regarding PhZwt with all purines |  |  |
| Nc1nc2[nH]nnc2c(=O)[nH]1 [8-azaguanine] | the T392A and A418V mutants exhibited higher levels of inhibition | L124M and S133T, show less [^3H]-hypoxanthine inhibition regarding PhZwt with all purines |  |  |
| Nc1nc2[nH]cnc2c(=O)[nH]1 [guanine] | the T392A and A418V mutants exhibited higher levels of inhibition | L124M and S133T, show less [^3H]-hypoxanthine inhibition regarding PhZwt with all purines |  |  |
| B1 |  |  |  | Km [3]: 1.6 ± 0.3 µM |
| B2 |  |  |  | Km [4]: 2.7 ± 0.2 µM |
| B3 |  |  | 2.1 ± 0.4 µM |  |
| B4 |  |  | 2.3 ± 0.3 µM |  |
| B5 |  |  | 2.8 ± 0.4 µM |  |
